According to article PMC11455612 (Cell, 2024):

How the values were obtained:
[1] = target: phosphatidylserine synthase 1 (PSS1) (Homo sapiens, UniProt P48651, P269S); format: biochemical
[2] = target: phosphatidylserine synthase 1 (PSS1) (Homo sapiens, UniProt P48651); test: cryo-EM structure at […] Å; format: biochemical

CC(F)(F)CN1C(=O)c2[nH]nc(-c3cccc4[nH]c(=O)oc34)c2[C@@H]1c1ccc(Oc2cc(C(F)(F)F)cc(C(F)(F)F)c2)cc1 [DS, DS55980254]
IC50 [1]: 1270 nM
IC50 [2]: 1650 nM
